In the test the target is T1, RIG-I (Homo sapiens, UniProt O95786).
T1 sequence (O95786 1-925): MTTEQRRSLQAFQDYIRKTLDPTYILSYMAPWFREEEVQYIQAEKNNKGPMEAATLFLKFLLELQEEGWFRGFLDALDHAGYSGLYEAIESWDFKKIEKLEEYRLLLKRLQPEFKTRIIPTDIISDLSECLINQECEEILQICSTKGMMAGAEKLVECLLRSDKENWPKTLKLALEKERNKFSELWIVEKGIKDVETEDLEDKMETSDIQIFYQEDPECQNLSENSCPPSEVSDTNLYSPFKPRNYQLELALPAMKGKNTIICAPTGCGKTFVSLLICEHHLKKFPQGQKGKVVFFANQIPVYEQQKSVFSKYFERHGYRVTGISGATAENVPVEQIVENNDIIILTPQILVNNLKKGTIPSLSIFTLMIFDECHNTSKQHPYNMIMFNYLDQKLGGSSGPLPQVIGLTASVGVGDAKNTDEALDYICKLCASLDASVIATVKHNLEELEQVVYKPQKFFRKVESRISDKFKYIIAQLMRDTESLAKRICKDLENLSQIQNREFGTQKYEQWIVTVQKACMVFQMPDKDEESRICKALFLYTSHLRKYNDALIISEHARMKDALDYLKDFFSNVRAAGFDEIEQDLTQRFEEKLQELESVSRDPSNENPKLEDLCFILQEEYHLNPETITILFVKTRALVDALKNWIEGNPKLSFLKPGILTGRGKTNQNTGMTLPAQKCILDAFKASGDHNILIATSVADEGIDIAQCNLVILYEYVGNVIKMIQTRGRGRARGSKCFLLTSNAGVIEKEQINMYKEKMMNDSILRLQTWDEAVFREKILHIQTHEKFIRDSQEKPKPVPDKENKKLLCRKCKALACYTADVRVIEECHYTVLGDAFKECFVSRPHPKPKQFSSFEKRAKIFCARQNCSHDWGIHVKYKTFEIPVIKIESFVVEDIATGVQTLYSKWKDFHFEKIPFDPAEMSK
The test can be described thus: NADH-coupled ATPase assay. Type of test: biochemical. Also noted: The native, full-length protein was expressed and purified using methods adapted from published protocols; SUMO (pET-SUMO vector; captured on Ni-NTA) (N, cleaved yes); made in house; host or cells: Rosetta II(DE3) Escherichia coli. How it is done: In this case, RIG-I was activated by a well-defined synthetic RNA hairpin duplex (SLR10-OH), which was added to a final concentration of 250 nM. A coupled assay mixture consisting of 1 mM NADH, 100 U/ml lactic dehydrogenase, 500 U/ml pyruvate kinase, 2.5 mM phosphoenol pyruvic acid was added to the sample. A 12-point serial dilution of the compound of interest was added in a DMSO vehicle such that DMSO concentrations were kept at a constant 2% over the entire drug dilution. The final concentration ranges for drug dilutions varied from compound to compound based on the potency of the small molecule in question. The dilutions covered ranges from 0 to as high as 100 μM (see association figures). Samples were incubated for at least 1 hour at RT. Reactions were initiated by the addition of a 1:1 ATP/MgCl2 mix to a final concentration of 5 mM.
The rate of ATP hydrolysis was determined indirectly by monitoring the conversion of NADH to NAD^+ that results in a loss of sample absorbance at 340 nm. Absorbance was measured over a 20 min time course using a sweeping read at 10 second intervals and a gain setting of 120 on a Biotek Synergy H1 Plate Reader. Mean kobs values were extrapolated for each time course and plotted against drug concentration, then fit to Eq. (1) to determine IC50 values. Each point was a based on two trials of three biological replicates with error bars representing the Standard deviation.

As to `CCC1(CC)C(=O)N=C2C1=C(OCc1ccccc1)C(=O)c1ccccc12` [RIG012, 4-Benzyloxy-3,3-diethyl-2H,3H,5H-benzo[g]indole-2,5-dione], where the note is “NADH-coupled ATPase assay, SLR10-OH activated, mean ± standard deviation, 3 measurements, read-out: IC50”, the IC50 turned out to be 710 ± 20 nM. The “RIG-I ATPase inhibition, result in words” value (SAR discussion of Table 1 compounds) is reported as “nanomolar IC50 values”.
